Reference: US11999758B2, “Inhibitors of the YAP/TAZ-TEAD interaction and their use in the treatment of cancer” (INVENTIVA, priority 2018, dated 2024)

Assays:
YAP-TEAD interaction = target: T1, YAP-TEAD interaction (Homo sapiens, UniProt P28347); experiment: Cell-based TEAD-GAL4 transactivation assay (luciferase reporter); conditions: HEK293 cells transfected with TEAD1-Gal4, YAP mutant (S127A, S397A) and luciferase reporter, compounds 0.1 μM to 30 μM; for Emax: HEK293, 24 h, read-out: TEAD-GAL4 Transactivation activity Max Act; for IC50: 24 h
T1 construct: expressed in transfected cells; host or cells: HEK293 GripTite 293 MSR (Invitrogen R795-07)
In short: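 HEK293 cells transiently transfected with Gal4-DBD–full-length human TEAD1, full-length YAP S127A/S397A (YAP/TEAD ratio 10) and a 5×GAL4-RE TK-luciferase reporter. Six hours later, compounds added semi-log from 0.1 to 30 μM (DMSO 0.5% control) for 24 h. Luciferase read; IC50 from 3-parameter fit.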

[1] = tested on: NCI-H2052 mesothelioma cell; experiment: Inhibition of malignant mesothelioma tumor cell growth (EdU proliferation); format: cell-based; conditions: NF2 mutated cell line; FIG. 1 (x)
Experimental: (§1) The tumor cell growth inhibitory activity of the YAP-TEAD interaction inhibitors was evaluated in NCI-H-2052 mesothelioma cell line harboring a NF2 mutation. This cell line was selected based on its mutational status and the ability of a siRNA directed against YAP, TAZ or TEAD1-4 to inhibit cell proliferation. The nuclear localization of YAP at confluence was also taken into account. Based on these observations we were able to classify several “YAP dependent cells” where YAP is clearly nuclear and in which a cell growth inhibition is observed by using siRNA (NCI-H-2052, SKOV-3, ACHN, A549) and the “YAP independent cells” where YAP is preferentially located in the cytoplasm and in which no inhibition of cell growth is observed by using a siRNA (SW620, Met-5a). […] After one day growth in the starvation medium, cells were incubated with compounds. The starting concentration was 30 μM and serial dilutions in DMSO and medium were performed until 0.1 μM to achieve a final DMSO concentration of 0.5%. The cells were then allowed to grow for 3 days, and then, EdU (Invitrogen, Molecular Probe) was added in each well at a final concentration of 10 μM and the cells were returned to the incubator for an additional 24 h. The starvation medium was removed and 100 μl of PFA 4% containing Hoechst dye was adding in each well to fix the cells. Plates were then incubated at rt for 15 min, washed twice with PBS and the cells were permeabilized by adding 100 μl per well of triton-100 containing 0.3% BSA. After 20 min, cells were washed with PBS and EdU detection was performed according to the instructions of the manufacturer. Image acquisition was performed using the ImageXpress Micro and analyzed using the MetaXpress software (Molecular Device). Results were expressed as a percent of inhibition (%) of the cell proliferation values obtained with 0.5% DMSO treatment alone. The cellular response was determined by fitting the concentration response curves using a 3 parameter curve fit equation and determining the concentration that inhibited cell growth between 50% and 100%.

Met5A cell line = experiment: Cell proliferation in YAP-independent cell line (EdU); format: cell-based; conditions: FIG. 1 (▪)
Experimental: as §1

T1 sequence (P28347 whole entry, the tested form may be a part): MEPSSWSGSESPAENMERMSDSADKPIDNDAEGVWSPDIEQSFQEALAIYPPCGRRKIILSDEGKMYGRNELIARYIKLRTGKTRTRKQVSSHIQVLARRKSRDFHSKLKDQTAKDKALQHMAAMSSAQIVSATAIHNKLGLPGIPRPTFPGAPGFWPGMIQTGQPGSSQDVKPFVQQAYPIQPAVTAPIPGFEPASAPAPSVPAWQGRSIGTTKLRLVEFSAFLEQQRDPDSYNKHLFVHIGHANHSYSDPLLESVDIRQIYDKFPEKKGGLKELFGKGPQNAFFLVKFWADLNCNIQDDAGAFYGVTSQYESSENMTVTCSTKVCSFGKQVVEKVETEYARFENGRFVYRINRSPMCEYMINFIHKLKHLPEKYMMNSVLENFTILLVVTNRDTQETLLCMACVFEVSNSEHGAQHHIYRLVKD

SMILES | Emax (YAP-TEAD interaction) [%] | IC50 (YAP-TEAD interaction) [nM] | melting point [°C] | NCI-H2052 mesothelioma cell proliferation [1] | effect in the Met5A cell line (Met5A cell line)
COc1cc(/C=N/N(CC(C)C)C2=NS(=O)(=O)c3ccccc32)ccc1B(O)O [Ex 1, [4-[(E)-[(1,1-dioxo-1,2-benzothiazol-3-yl)-isobutyl-hydrazono]methyl]-2-methoxy-phenyl]boronic acid] | 86 | 7310 | – | inhibited | without showing any effect
CCN(/N=C/c1ccc2c(c1)COB2O)c1ncnc2nc(N3CCOCC3)sc12 [Ex82, N-ethyl-N-[(E)-(1-hydroxy-3H-2,1-benzoxaborol-5-yl)methyleneamino]-2-morpholino-thiazolo[4,5-d]pyrimidin-7-amine] | 89 | 2370 | 183 to 189 | – | –
COCCN(/N=C/c1ccc2c(c1)COB2O)c1ncnc2c(C)csc12 [Ex94, N-[(E)-(1-hydroxy-3H-2,1-benzoxaborol-5-yl)methyleneamino]-N-(2-methoxyethyl)-7-methyl-thieno[3,2-d]pyrimidin-4-amine] | 80 | 460 | 240 to 253 | – | –
CN(/N=C/c1ccc2c(c1)COB2O)c1ncnc2c1cnn2C [Ex76, N-[(E)-(1-hydroxy-3H-2,1-benzoxaborol-5-yl)methyleneamino]-N,1-dimethyl-pyrazolo[3,4-d]pyrimidin-4-amine] | 86 | 960 | 250 to 260 | – | –
COc1cc(/C=N/N(C)c2ncnc3c(C)csc23)ccc1B(O)O [Ex71, [2-methoxy-4-[(E)-[methyl-(7-methylthieno[3,2-d]pyrimidin-4-yl) hydrazono]methyl]phenyl]boronic acid] | 68 | 1140 | 237 to 267 | – | –
Cc1csc2c(N3N=C(c4ccc5c(c4)COB5O)CCC3C)ncnc12 (stereo not drawn) [Ex118, 4-[6-(1-hydroxy-3H-2,1-benzoxaborol-5-yi)-3-methyl-4,5-dihydro-3H-pyridazin-2-yl]-7-methyl-thieno[3,2-d]pyrimidine] | 86 | 270 | – | inhibited | without showing any effect
CSc1nc2ncnc(N(C)/N=C/c3ccc4c(c3)COB4O)c2s1 [Ex75, N-[(E)-(1-hydroxy-3H-2,1-benzoxaborol-5-yl)methyleneamino]-N-methyl-2-methylsulfanyl-thiazolo[4,5-d]pyrimidin-7-amine] | 94 | 900 | 262 to 286 | inhibited | without showing any effect
CN(/N=C/c1ccc2c(c1)COB2O)c1ncnc2c1[nH]c(=O)n2C12CC(C1)C2 [Ex110, 9-(3-bicyclo[1.1.1]pentanyl)-6-[[(E)-(1-hydroxy-3H-2,1-benzoxaborol-5-yl)methyleneamino]-methyl-amino]-7H-purin-8-one] | 81 | 2410 | 259 to 270 | – | –
CCN(/N=C/c1ccc2c(c1)COB2O)c1ncnc2c(C)n[nH]c12 [Ex80, N-ethyl-N-[(E)-(1-hydroxy-3H-2,1-benzoxaborol-5-yl)methyleneamino]-3-methyl-1H-pyrazolo[4,3-d]pyrimidin-7-amine] | 69 | 1960 | 265 to 276 | – | –
CN(/N=C/c1ccc2c(c1)COB2O)c1ncnc2c1CC(=O)N2C [Ex99, 4-[[(E)-(1-hydroxy-3H-2,1-benzoxaborol-5-yl)methyleneamino]-methyl-amino]-7-methyl-5H-pyrrolo[2,3-d]pyrimidin-6-one] | 91 | 2120 | 288 to 307 | – | –
CSc1nc2ncnc(N(CC(C)C)/N=C/c3ccc4c(c3)COB4O)c2s1 [Ex92, N-[(E)-(1-hydroxy-3H-2,1-benzoxaborol-5-yl)methyleneamino]-N-isobutyl-2-methylsulfanyl-thiazolo[4,5-d]pyrimidin-7-amine] | 91 | 170 | 214 to 246 | – | –

Continued, in another order:

Emax (YAP-TEAD interaction) [%] | IC50 (YAP-TEAD interaction) [nM] | melting point [°C] | SMILES | NCI-H2052 mesothelioma cell proliferation [1] | effect in the Met5A cell line (Met5A cell line)
78 | 420 | 225 | CCN(/N=C/c1ccc2c(c1)COB2O)c1ncnc2occc12 [Ex 43, N-ethyl-N-[(E)-(1-hydroxy-3H-2,1-benzoxaborol-5-yl)methyleneamino]furo[2,3-d]pyrimidin-4-amine] | – | –
81 | 260 | – | CCN(/N=C/c1ccc2c(c1)COB2O)c1ncnc2c(C)csc12 [Ex 42, N-ethyl-N-[(E)-(1-hydroxy-3H-2,1-benzoxaborol-5-yl)methyleneamino]-7-methyl-thieno[3,2-d]pyrimidin-4-amine] | inhibited | without showing any effect
83 | 6460 | 218 | CCN(/N=C/c1ccc2c(c1)COB2O)C1=NS(=O)(=O)c2ccccc21 [Ex 27, N-ethyl-N-[(E)-(1-hydroxy-3H-2,1-benzoxaborol-5-yl)methyleneamino]-1,1-dioxo-1,2-benzothiazol-3-amine] | – | –
81 | 1200 | 245 | CCN(/N=C/c1ccc2c(c1)COB2O)c1ncnc2[nH]ccc12 [Ex 39, N-ethyl-N-[(E)-(1-hydroxy-3H-2,1-benzoxaborol-5-yl)methyleneamino]-7H-pyrrolo[2,3-d]pyrimidin-4-amine] | – | –
87 | 1340 | – | COc1cc(/C=N/N(CC(C)C)c2ncnc3ccsc23)ccc1B(O)O [Ex 20, [4-[(E)-[isobutyl(thieno[3,2-d]pyrimidin-4-yl)hydrazono]methyl]-2-methoxy-phenyl] boronic acid] | inhibited | without showing any effect
